70 compounds from ChEMBL document CHEMBL5604063, “ASAP - DENV-2 NS2B-NS3 protease fluorescence dose response” (2024) can be followed below.

Assay [1] addresses T1, Genome polyprotein (dengue virus type 2, UniProt P29990). It counts as functional, Thailand/16681/1984.
The target of assay [2] is T1, Genome polyprotein. Format: functional, Thailand/16681/1984. The source holds these as a separate data set.

Structures are written as SMILES. Values joined by “and” are separate entries in the source; they are usually repeats but may differ in a detail not shown here. Identical values can stand only once.

T1 sequence (P29990 1346-1475 limits assumed): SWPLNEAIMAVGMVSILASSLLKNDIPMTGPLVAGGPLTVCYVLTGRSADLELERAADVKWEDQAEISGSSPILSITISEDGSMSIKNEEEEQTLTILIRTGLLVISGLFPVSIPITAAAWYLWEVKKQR
T1 sequence (P29990 1476-2093 limits assumed): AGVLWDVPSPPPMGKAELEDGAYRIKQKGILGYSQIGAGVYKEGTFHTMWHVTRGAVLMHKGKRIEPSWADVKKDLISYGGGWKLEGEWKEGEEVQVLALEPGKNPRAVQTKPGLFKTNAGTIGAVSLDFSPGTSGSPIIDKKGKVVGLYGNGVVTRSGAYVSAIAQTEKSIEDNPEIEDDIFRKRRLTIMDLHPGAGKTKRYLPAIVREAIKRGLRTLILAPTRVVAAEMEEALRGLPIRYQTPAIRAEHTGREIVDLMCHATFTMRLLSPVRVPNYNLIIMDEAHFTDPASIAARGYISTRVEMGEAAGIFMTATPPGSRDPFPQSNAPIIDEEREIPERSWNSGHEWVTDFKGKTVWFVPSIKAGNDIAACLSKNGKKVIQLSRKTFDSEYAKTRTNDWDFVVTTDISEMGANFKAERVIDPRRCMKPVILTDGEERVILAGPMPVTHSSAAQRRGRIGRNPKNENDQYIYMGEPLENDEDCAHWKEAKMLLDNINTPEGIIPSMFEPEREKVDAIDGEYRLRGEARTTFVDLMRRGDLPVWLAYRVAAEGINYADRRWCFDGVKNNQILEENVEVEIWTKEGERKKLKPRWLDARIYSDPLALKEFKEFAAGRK

With `O=C(Nc1ccc2c(c1)CNC2)c1ccc2[nH]ncc2c1`, the IC50 on Genome polyprotein [1] is > 99.5 µM; against Genome polyprotein [2], > 100 µM.
On to `O=C(Nc1ccc2c(c1)CNC2)c1cccc2[nH]c(C(F)(F)F)cc12`, for which the IC50 at Genome polyprotein [1] was 91.7 µM; at Genome polyprotein [2] it was > 100 µM.
For `CN1Cc2cc(NC(=O)c3cc(Cl)cc4[nH]ncc34)ccc2C1(C)C` the same measures were > 99.5 µM and > 100 µM.
The like results for `O=C(Nc1ccc2nc[nH]c2c1)c1cc(F)cc2[nH]ncc12` were, in that order, > 99.5 µM and > 100 µM.
Turning to `COc1nn(C)cc1-c1nc2c(C(=O)Nc3ccc4c(c3)CNC4)cc(Cl)cc2[nH]1`, the IC50 is > 99.5 µM against Genome polyprotein [1] and > 100 µM on Genome polyprotein [2].
The like results for `CC(C)CCN1Cc2ccc(NC(=O)c3cc(Cl)cc4[nH]ncc34)cc2C1` were, in that order, > 99.5 µM and > 100 µM.
For `C=CC[C@H]1NCc2cc(NC(=O)c3cccc4c3CC(=O)N4)ccc21` the same measures were > 99.5 µM and > 100 µM.
The like results for `COc1ccc2[nH]cnc2c1S(=O)(=O)Nc1ccc2c(c1)CNC2` were, in that order, > 99.5 µM and > 100 µM.
As for `Clc1cc([C@@H]2C[C@H]2c2cccc(C3CCNCC3)c2)c2cn[nH]c2c1`, the IC50 is 7.93 µM and 6.82 µM and 6.33 µM at Genome polyprotein [1]; 9.27 µM and 13.3 µM at Genome polyprotein [2].
For the compound `NCc1ccccc1C(=O)Nc1ccc2c(c1)C(=O)OC2`, the IC50 is > 99.5 µM at Genome polyprotein [1] and > 100 µM against Genome polyprotein [2].
For `O=C(Nc1ccc2c(c1)CNC2)c1cc(F)cc2[nH]cnc12` the same measures were 99 µM and > 100 µM.
For `O=C(Nc1ccc2c(c1)CNC2)c1nc(C(F)(F)F)cs1` the same measures were > 99.5 µM and > 100 µM.
For `Cn1cc2c(C(=O)Nc3ccc4c(c3)CNC4)cc(F)cc2n1` the same measures were > 99.5 µM and > 100 µM.
`O=C(Nc1ccc2c(c1)CNC2)c1cc(Br)cc2[nH]c([C@H]3CCCO3)nc12`: the IC50 on Genome polyprotein [1] was > 99.5 µM; against Genome polyprotein [2] it was > 100 µM.
The like results for `CN1C(=O)Cc2cc(C(=O)Nc3ccc4c(c3)CNC4)ccc21` were, in that order, > 99.5 µM and > 100 µM.
For `C=CC[C@H]1NCc2cc(NC(=O)c3cc(Cl)cc4[nH]ncc34)ccc21` the same measures were > 99.5 µM and > 100 µM.
For `O=C(Nc1ccc2c(c1)CNC2)c1cccc2c1OCCN2`, the figures for the IC50 at Genome polyprotein [1] and against Genome polyprotein [2] were > 99.5 µM and > 100 µM, respectively.
For `CC1(C)C(=O)N[C@H]2CCCN(C(=O)Nc3ccc4c(c3)CNC4)[C@H]21` the same measures were > 99.5 µM and > 100 µM.
With `O=C1C[C@H]2[C@H](CCCN2C(=O)Nc2ccc3c(c2)CNC3)N1`, the IC50 against Genome polyprotein [1] is > 99.5 µM; against Genome polyprotein [2] it was 75.5 µM and 46.1 µM and > 100 µM (2×).
With `O=C(Nc1ccc2c(c1)CNC2)N1CC[C@H](Oc2ccc(C3CC3)cn2)C1`, the values for the IC50 on Genome polyprotein [1] and on Genome polyprotein [2] were > 99.5 µM and > 100 µM, respectively.
For `CCc1ccc(-c2nc3c(C(=O)Nc4ccc5c(c4)CNC5)cc(Cl)cc3[nH]2)cc1` the same measures were 21.5 µM and 42.9 µM.
For `O=C(Nc1ccc2c(c1)CNC2)N1CCC[C@H]1c1nc2ncccc2[nH]1` the same measures were > 99.5 µM and > 100 µM.
For `O=C1NS(=O)(=O)c2ccc(NC(=O)c3cc(Cl)cc4[nH]ncc34)cc21` the same measures were > 99.5 µM and > 100 µM.
`CC(C)(C)c1nc2c(C(=O)Nc3ccc4c(c3)CNC4)cc(Br)cc2[nH]1`: the values for the IC50 against Genome polyprotein [1] and against Genome polyprotein [2] were 39 µM and > 100 µM, respectively.
For `O=C(Nc1ccc2c(c1)CNC2)N1CCC[C@@H]1COCc1ccccc1` the same measures were > 99.5 µM and > 100 µM.
The like results for `CNC(=O)c1cccc(C(=O)Nc2ccc3c(c2)CNC3)c1` were, in that order, > 99.5 µM and > 100 µM.
For `C#C[C@H](Nc1ccc2c(c1)CNC2)c1cccc2[nH]c(=O)[nH]c12` the same measures were > 99.5 µM and > 100 µM.
For the compound `CCOCC1(c2nc3c(C(=O)Nc4ccc5c(c4)CNC5)cc(Cl)cc3[nH]2)CC1`, the IC50 at Genome polyprotein [1] is 87.5 µM; on Genome polyprotein [2], > 100 µM.
For `O=C(Nc1ccc2c(c1)CNC2)c1cc(Cl)cc2cc[nH]c12` the same measures were > 99.5 µM and > 100 µM.
Regarding `C=CC[C@H]1NCc2cc(NC(=O)c3cc(F)cc4[nH]ncc34)ccc21`, the IC50 against Genome polyprotein [1] was 72.9 µM; against Genome polyprotein [2], 39 µM.
For `O=C(Nc1ccc2c(c1)CNC2)c1cccc2[nH]ccc12` the same measures were > 99.5 µM and > 100 µM.
For `O=C(Nc1cc([C@H]2CCOC2)ccn1)c1ccc2ncsc2c1` the same measures were > 99.5 µM and > 100 µM.
With `O=C1Cc2c(cc(F)cc2C(=O)Nc2ccc3c(c2)CNC3)N1`, the concentration for half-maximal inhibition (IC50) was 32.8 µM against Genome polyprotein [1]; 30 µM and 25.6 µM and 21 µM against Genome polyprotein [2].
Take `CC(C)NC(=O)[C@H](Nc1ccc2c(c1)CNC2)c1cc(F)cc2[nH]ncc12`: the IC50 on Genome polyprotein [1] was > 99.5 µM; against Genome polyprotein [2] it was > 100 µM.
For `O=C(Nc1ccc2[nH]c(=O)[nH]c2c1)c1cc(F)cc2[nH]ncc12` the same measures were > 99.5 µM and > 100 µM.
For `O=C(Nc1ccc2c(c1)CNC2)c1cc(Cl)ccc1-n1cnnn1` the same measures were > 99.5 µM and > 100 µM.
For `CN(C)C(=O)N1Cc2ccc(NC(=O)c3cc(Cl)cc4[nH]ncc34)cc2C1` the same measures were > 99.5 µM and > 100 µM.
As for `CC(C)(C)NC(=O)[C@H](Nc1ccc2c(c1)CNC2)c1cc(Cl)cc2[nH]ncc12`, the IC50 was > 99.5 µM at Genome polyprotein [1] and > 100 µM against Genome polyprotein [2].
`Cn1c(=O)[nH]c2c(C(=O)Nc3ccc4c(c3)CNC4)cc(Br)cc21`: the IC50 against Genome polyprotein [1] is > 99.5 µM; against Genome polyprotein [2], 42.8 µM and 34.9 µM.
In the case of `O=C(Nc1ccc2c(c1)CNC2)c1cc(Cl)cc2[nH]c(-c3cc(C4CC4)[nH]n3)nc12`, the IC50 was 7.32 µM and 5.15 µM at Genome polyprotein [1]; > 100 µM against Genome polyprotein [2].
In the case of `N#C[C@H](Nc1ccc2c(c1)CNC2)c1cccc2ncccc12`, the results for the IC50 on Genome polyprotein [1] and on Genome polyprotein [2] were > 99.5 µM and > 100 µM, respectively.
For the compound `O=C(Nc1ccc2c(c1)CNC2)c1cc(F)cc2c1CCC2`, the IC50 on Genome polyprotein [1] was > 99.5 µM; on Genome polyprotein [2] it was > 100 µM.
For `CC(C)Nc1c(-c2cc(Cl)cc3[nH]ncc23)nc2ccc3c(n12)CNC3`, the results for the IC50 on Genome polyprotein [1] and at Genome polyprotein [2] were > 99.5 µM and > 100 µM, respectively.
The like results for `O=C(Nc1ccc2c(c1)CNC2)c1cc(Cl)cc2[nH]c(CCc3cccnc3)nc12` were, in that order, 44.7 µM and > 100 µM.
The like results for `NC[C@H]1CC[C@@H](NC(=O)c2cc(Cl)cc3[nH]ncc23)CC1` were, in that order, > 99.5 µM and > 100 µM.
The like results for `COCc1cc(Cl)cc(C(=O)Nc2ccc3c(c2)CNC3)c1` were, in that order, > 99.5 µM and > 100 µM.
For `NCc1cc(CC(=O)O)cc([C@H]2C[C@@H]2c2cc(Cl)cc(NC(=O)OCc3ccccc3)c2)c1`, the IC50 against Genome polyprotein [1] was > 99.5 µM; against Genome polyprotein [2], > 100 µM.
With `CN(C)C(=O)CCCc1nc2c(C(=O)Nc3ccc4c(c3)CNC4)cc(Cl)cc2[nH]1`, the IC50 at Genome polyprotein [1] is > 99.5 µM; on Genome polyprotein [2], > 100 µM.
The like results for `O=C(Nc1ccc2c(c1)CNC2)c1nc(-c2ccccc2)cs1` were, in that order, > 99.5 µM and > 100 µM.
For `O=C1Cc2ccc(NC(=O)c3cc(F)cc4[nH]ncc34)cc2N1`, the IC50 is > 99.5 µM at Genome polyprotein [1] and > 100 µM against Genome polyprotein [2].
The like results for `O=C(Nc1ccc2c(c1)CNC2)c1cc(Cl)cc(N2CCCC2=O)c1` were, in that order, > 99.5 µM and > 100 µM.
For `COc1cc(Cl)cc(C(=O)Nc2ccc3c(c2)CNC3)c1` the same measures were > 99.5 µM and > 100 µM.
Take `CC(=O)N1Cc2ccc(NC(=O)c3cc(Cl)cc4[nH]ncc34)cc2C1`: the figures for the IC50 against Genome polyprotein [1] and against Genome polyprotein [2] were > 99.5 µM and > 100 µM, respectively.
For `COc1ncc(Cl)cc1C(=O)Nc1ccc2c(c1)CNC2` the same measures were > 99.5 µM and > 100 µM.
For `O=C(Nc1nc(O)c2c(n1)CNC2)c1cc(Cl)cc2[nH]ncc12` the same measures were > 99.5 µM and > 100 µM.
The like results for `Clc1cccc([C@H](C#Cc2ccccc2)Nc2ccc3c(c2)CNC3)c1` were, in that order, > 99.5 µM and > 100 µM.
Regarding `O=C(Nc1ccc2c(c1)CNC2)c1cc(F)cc2[nH]c(-c3ccccc3)nc12`, the half-inhibitory concentration (IC50) against Genome polyprotein [1] is 7.96 µM and 7.05 µM; on Genome polyprotein [2] it was 5.75 µM.
For `O=C(Nc1ccc2c(c1)CNC2)c1cc(Cl)cc2nn(-c3ccccc3)nc12`, the IC50 against Genome polyprotein [1] was 7.45 µM and 8.05 µM and 6.62 µM; against Genome polyprotein [2], 12.9 µM.
Turning to `CCC[C@H](C)N1Cc2ccc(NC(=O)c3cc(Cl)cc4[nH]ncc34)cc2C1`, the results for the IC50 against Genome polyprotein [1] and on Genome polyprotein [2] were > 99.5 µM and > 100 µM, respectively.
On to `O=C(Nc1ccc2c(c1)CNC2)c1cccc2cn[nH]c12`, for which the IC50 was > 99.5 µM and 55.6 µM against Genome polyprotein [1]; > 100 µM on Genome polyprotein [2].
Turning to `O=C(Nc1cc2c(cc1Br)CNC2)c1cc(F)cc2[nH]ncc12`, the IC50 against Genome polyprotein [1] stood at 67 µM; against Genome polyprotein [2], 58 µM.
The like results for `C[C@](C#N)(Nc1ccc2c(c1)CNC2)c1cccc(Cl)c1` were, in that order, > 99.5 µM and > 100 µM.
The like results for `C#Cc1cc(Cl)cc(C(=O)Nc2ccc3c(c2)CNC3)c1` were, in that order, > 99.5 µM and > 100 µM.
In the case of `O=C1Cc2c(cc(Br)cc2C(=O)Nc2ccc3c(c2)C(=O)OC3)N1`, the IC50 against Genome polyprotein [1] is > 99.5 µM; against Genome polyprotein [2], > 100 µM.
The like results for `O=C(Nc1ccc2c(c1)CNC2)c1cc(Cl)cc2ccccc12` were, in that order, > 99.5 µM and > 100 µM.
As for `O=C1CN(C(=O)Nc2ccc3c(c2)CNC3)[C@H]2CCCC[C@H]2N1`, the IC50 is > 99.5 µM against Genome polyprotein [1] and > 100 µM against Genome polyprotein [2].
For `O=C(Nc1ccc2c(c1)CNC2)N1CCC[C@H]1Cc1cc2ccccc2o1` the same measures were > 99.5 µM and > 100 µM.
As to `O=C(Nc1ccc2c(c1)CNC2)c1cc(Cl)cc2[nH]c(-c3cnc(C4CC4)o3)nc12`, the half-maximal inhibitory concentration (IC50) was determined as 58.7 µM on Genome polyprotein [1] and 19.4 µM on Genome polyprotein [2].
For `O=C(Nc1ccc2c(c1)CNC2)c1cc(Cl)cc(N2CCCC2)c1` the same measures were > 99.5 µM and > 100 µM.
For `CC(=O)Nc1cccc(C(=O)Nc2ccc3c(c2)CNC3)c1` the same measures were > 99.5 µM and > 100 µM.

The term IC50 denotes the point on the concentration scale where inhibition reaches its midpoint. A lower IC50 goes with greater potency.
